How the values were obtained:
[1] = test system: mAb 34-5-8S; assay: Control: binding of free peptide to the immobilized 34-5-8S antibody surface; conditions: free peptide without H-2Dd at concentrations as high as 222 uM; SPR
[2] = molecular target: H-2Dd (Mus musculus, UniProt P01900); assay: Solution phase competition assay; format: binding; conditions: data not shown
[3] = Solubility of synthetic peptides in water; format: physicochemical; conditions: peptides dissolved in dH2O; insoluble ones reconstituted in 20% DMSO

H-2Dd, sequence (P01900 whole entry, looked up): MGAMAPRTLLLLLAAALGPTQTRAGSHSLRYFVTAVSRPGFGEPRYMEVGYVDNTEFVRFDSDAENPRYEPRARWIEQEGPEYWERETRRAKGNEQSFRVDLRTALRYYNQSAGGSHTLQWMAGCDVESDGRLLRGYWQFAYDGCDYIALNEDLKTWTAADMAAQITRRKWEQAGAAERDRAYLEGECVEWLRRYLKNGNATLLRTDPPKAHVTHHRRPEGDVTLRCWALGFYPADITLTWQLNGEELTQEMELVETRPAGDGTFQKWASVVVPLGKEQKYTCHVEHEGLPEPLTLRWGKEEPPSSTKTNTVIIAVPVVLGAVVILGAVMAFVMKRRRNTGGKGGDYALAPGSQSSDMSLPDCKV

Row | Sequence | signal of free peptide on immobilized 34-5-8S [1] [RU] | relative binding to H-2Dd [2] | solubility in water / aqueous solution [3]
1 | AGPARAAAL [pD2359] | < 7 | binds better than pD239 | –
2 | SGPVALVNF [pD46B] | – | – | relative aqueous insolubility
3 | SGPVALVNFI [pD46A] | – | – | relative aqueous insolubility

From publication PMC2191296 (The Journal of Experimental Medicine, 1993)
